The source of these data is US11040033B2 (Gilead Sciences, Inc., priority 2017, dated 2021).

The assay deals with T1, IDO1 (Homo sapiens, UniProt P14902).
T1 construct: HeLa cells were treated with a test compound in the presence of IFNγ, which induces IDO1 expression; endogenous in cells; host or cells: H1-HeLa cells (ATCC #CRL-1958), induced with IFNγ
The assay can be described thus: Cell-based (HeLa) assay for measurement of IDO1 inhibition (kynurenine levels in supernatant after IFNγ induction). Particulars: H1-HeLa cells, IFNγ-induced IDO1, 48 hour incubation, kynurenine absorbance at 480 nm; geometric mean of a minimum of four determinations. The procedure:
To measure IDO1 inhibition in tissue culture, HeLa cells were treated with a test compound in the presence of IFNγ, which induces IDO1 expression. Following incubation, cell supernatants were assayed for kynurenine levels, an indicator of IDO1 activity.
H1-HeLa cells (ATCC #CRL-1958) were seeded in 384-well plates (Greiner #82051-282) at a volume […] (Corning #15-018-CM) supplemented with 10% FBS (Corning #35-011-CV) and 1% P/S/G (Corning #30-009-CL) at a density of 1,250 cells/well and incubated overnight at 37° C., 5% CO2/100% humidity. The following day, the test compounds were added in DMSO (0.5% final) at various concentrations, and IDO1 was inducibly expressed by the addition of 50 uL/well of 50 ng/mL of INFγ(Peprotech #300-02) in cell plating media. As a positive control, 50 uL of the cell plating media without IFNγ was added to several wells. Following a 48 hour incubation, the plates were spun down at 1,200 RPM for 5 min at 10° C. 65 μL/well of the supernatant was then transferred to new 384-well plates (Thermo #262160) that contained 10 uL/well of 30% TCA (Sigma #T0699), and the plates were sealed and incubated at 60° C. for 30 min. The plates were then centrifuged for 15 min at 2,000 RPM at 10° C. 40 μL/well of the supernatant was transferred to new 384-well plates (Thermo #262160) and was reacted with 40 μL/well of 2% (w/v) p-dimethylaminobenzaldehyde (Sigma #156417) in glacial acetic acid (Sigma #A6283). The reaction was incubated at room temperature for 10 min and absorbance at 480 nm was read using a PerkinElmer Envision plate reader.
Data in Table 1 were normalized based on positive (−IFNγ) and negative (+IFNγ) controls and EC50 values were calculated from the fit of the dose-response curves to a four-parameter equation. All EC50 values represent geometric mean values of a minimum of four determinations. These assays generally produced results within 2-fold of the reported mean.

T1 sequence (P14902 whole entry): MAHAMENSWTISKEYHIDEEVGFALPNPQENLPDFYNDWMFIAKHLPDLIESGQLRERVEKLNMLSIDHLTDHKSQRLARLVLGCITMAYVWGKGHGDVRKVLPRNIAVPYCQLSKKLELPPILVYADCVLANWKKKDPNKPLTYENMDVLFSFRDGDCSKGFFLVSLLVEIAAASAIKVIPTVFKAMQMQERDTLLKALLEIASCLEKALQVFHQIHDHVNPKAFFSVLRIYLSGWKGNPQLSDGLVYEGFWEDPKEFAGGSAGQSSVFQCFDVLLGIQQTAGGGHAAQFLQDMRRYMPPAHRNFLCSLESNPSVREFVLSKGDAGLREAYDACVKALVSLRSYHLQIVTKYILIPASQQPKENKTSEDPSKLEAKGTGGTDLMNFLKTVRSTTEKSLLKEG

A word on the EC50: it is the concentration giving half of the maximal effect. The low end stands for an effect from little substance, the high end for a need for much substance. `O=C(Nc1ccc(F)cc1)c1cc(-c2cccn3c(-c4cccnc4)ncc23)ccc1C(F)(F)F` [Example 31, N-(4-fluorophenyl)-5-(3-(pyridin-3-yl)imidazo[1,5-a]pyridin-8-yl)-2-(trifluoromethyl)benzamide] showed an EC50 of 38.3 nM.
The figure for `O=C(Nc1ccc(F)cc1)c1cc(-c2cccn3c(-c4cc[nH]n4)ncc23)ccc1C(F)(F)F` [Example 32, 5-(3-(1H-pyrazol-3-yl)imidazo[1,5-a]pyridin-8-yl)-N-(4-fluorophenyl)-2-(trifluoromethyl)benzamide] is 34.9 nM; for `O=C(Nc1ccc(F)cc1)c1cc(-c2cccn3c(-c4ccccn4)ncc23)ccc1C(F)(F)F` [Example 33, N-(4-fluorophenyl)-5-(3-(pyridin-2-yl)imidazo[1,5-a]pyridin-8-yl)-2-(trifluoromethyl)benzamide] it is 31.1 nM.
For `Cc1ccc(-c2cccn3c(-c4cccc(F)c4F)ncc23)cc1C(=O)Nc1ccc(F)cc1` [Example 34, 5-(3-(2,3-difluorophenyl)imidazo[1,5-a]pyridin-8-yl)-N-(4-fluorophenyl)-2-methylbenzamide] the value was 29.4 nM.
For `Cc1ncc(-c2cccn3c(-c4cccc(F)c4)ncc23)cc1C(=O)Nc1ccc(F)cc1` [Example 35, N-(4-fluorophenyl)-5-(3-(3-fluorophenyl)imidazo[1,5-a]pyridin-8-yl)-2-methylnicotinamide] the value was 26.8 nM; for `O=C(Nc1ccc(F)cc1)c1cc(-c2cccn3c(-c4cnccn4)ncc23)ccc1C(F)(F)F` [Example 36], 25.2 nM.
With `Cc1ccc(-c2cccn3c(-c4ncccn4)ncc23)cc1C(=O)Nc1ccc(F)cc1` [Example 37, N-(4-fluorophenyl)-2-methyl-5-(3-(pyrimidin-2-yl)imidazo[1,5-a]pyridin-8-yl)benzamide], the EC50 came to 24.2 nM.
On to `O=C(Nc1ccc(F)cc1)c1nc(-c2cccn3c(-c4cccc(F)c4F)ncc23)ccc1C(F)(F)F` [Example 38, 6-(3-(2,3-difluorophenyl)imidazo[1,5-a]pyridin-8-yl)-N-(4-fluorophenyl)-3-(trifluoromethyl)picolinamide], for which the EC50 amounted to 23.8 nM.
`O=C(Nc1ccc(F)cc1)c1cc(-c2cccn3c(-c4cccc(F)c4)ncc23)ccc1C(F)(F)F` [Example 39, N-(4-fluorophenyl)-5-(3-(3-fluorophenyl)imidazo[1,5-a]pyridin-8-yl)-2-(trifluoromethyl)benzamide]: it took 23.3 nM to reach a half-maximal effect (EC50).
For the molecule `Cc1ccc(-c2cccn3c(-c4ncco4)ncc23)cc1C(=O)Nc1ccc(F)cc1` [Example 40, N-(4-fluorophenyl)-2-methyl-5-(3-(oxazol-2-yl)imidazo[1,5-a]pyridin-8-yl)benzamide], the EC50 was 23.1 nM.
For `O=C(Nc1ccc(F)cc1)c1cc(-c2cccn3c(-c4cccc(F)c4F)ncc23)ccc1C(F)F` [Example 41, 2-(difluoromethyl)-5-(3-(2,3-difluorophenyl)imidazo[1,5-a]pyridin-8-yl)-N-(4-fluorophenyl)benzamide], a half-maximal response (EC50) required 19.8 nM.
Molecule `Cc1ccc(-c2cccn3c(-c4cccc(F)c4F)ncc23)c(F)c1C(=O)Nc1ccc(F)cc1` [Example 42, 3-(3-(2,3-difluorophenyl)imidazo[1,5-a]pyridin-8-yl)-2-fluoro-N-(4-fluorophenyl)-6-methylbenzamide] showed an EC50 of 17.7 nM.
The figure for `Cc1ncc(-c2cccn3c(-c4cccc(F)c4F)ncc23)cc1C(=O)Nc1ccc(F)cc1` [Example 43, 5-(3-(2,3-difluorophenyl)imidazo[1,5-a]pyridin-8-yl)-N-(4-fluorophenyl)-2-methylnicotinamide] is 17.2 nM.
The figure for `Cc1nc(-c2cccc(F)c2F)n2cccc(-c3ccc(C(F)(F)F)c(C(=O)Nc4ccc(F)cc4)c3)c12` [Example 44, 5-(3-(2,3-difluorophenyl)-1-methylimidazo[1,5-a]pyridin-8-yl)-N-(4-fluorophenyl)-2-(trifluoromethyl)benzamide] is 16.9 nM.
On to `O=C(Nc1ccc(F)cc1)c1cc(-c2cccn3c(-c4ncccn4)ncc23)ccc1C(F)(F)F` [Example 45], for which a half-maximal response (EC50) required 16.4 nM.
`O=C(Nc1ccc(F)cc1)c1cc(-c2cccn3c(-c4ncco4)ncc23)ccc1C(F)(F)F` [Example 46, N-(4-fluorophenyl)-5-(3-(oxazol-2-yl)imidazo[1,5-a]pyridin-8-yl)-2-(trifluoromethyl)benzamide] gave a concentration for a half-maximal effect (EC50) of 16.1 nM.
The figure for `O=C(Nc1ccc(F)cc1)c1cc(-c2cccn3c(-c4cccc(F)c4F)ncc23)cnc1C(F)(F)F` [Example 47, 5-(3-(2,3-difluorophenyl)imidazo[1,5-a]pyridin-8-yl)-N-(4-fluorophenyl)-2-(trifluoromethyl)nicotinamide] is 16 nM; for `O=C(Nc1ccc(F)cc1)c1cc(-c2cccn3c(-c4cccc(F)c4F)ncc23)ccc1C(F)(F)F` [Example 48, 5-(3-(2,3-difluorophenyl)imidazo[1,5-a]pyridin-8-yl)-N-(4-fluorophenyl)-2-(trifluoromethyl)benzamide] it is 15.9 nM; for `Cc1ncc(-c2cccn3c(-c4ccccc4F)ncc23)cc1C(=O)Nc1ccc(F)cc1` [Example 49, N-(4-fluorophenyl)-5-(3-(2-fluorophenyl)imidazo[1,5-a]pyridin-8-yl)-2-methylnicotinamide] it is 15.7 nM.
As to `Cc1ncc(-c2ccnn3c(-c4cccc(F)c4F)nnc23)cc1C(=O)Nc1ccc(F)cc1` [Example 50, 5-(3-(2,3-difluorophenyl)-[1,2,4]triazolo[4,3-b]pyridazin-8-yl)-N-(4-fluorophenyl)-2-methylnicotinamide], the response was half-maximal at 1890 nM (EC50).
In turn, `Cc1ccc(-c2nccn3c(-c4cccc(F)c4F)ncc23)cc1C(=O)Nc1ccc(F)cc1` [Example 51, 5-(3-(2,3-difluorophenyl)imidazo[1,5-a]pyrazin-8-yl)-N-(4-fluorophenyl)-2-methylbenzamide] had an EC50 of 656 nM.
With `Cc1ccc(-c2nccn3c(-c4ccccc4C)ncc23)cc1C(=O)Nc1ccc(F)cc1` [Example 52, N-(4-fluorophenyl)-2-methyl-5-(3-(o-tolyl)imidazo[1,5-a]pyrazin-8-yl)benzamide], the EC50 is 3110 nM.
Consider `Cc1cccc(-c2ncc3c(-c4ccc(C)c(C(=O)Nc5ccc(F)cc5)c4)nccn23)c1` [Example 53, N-(4-fluorophenyl)-2-methyl-5-(3-(m-tolyl)imidazo[1,5-a]pyrazin-8-yl)benzamide], for which the response was half-maximal at 2380 nM (EC50).
As for `Cc1ccc(-c2nccn3c(-c4ccccn4)ncc23)cc1C(=O)Nc1ccc(F)cc1` [Example 54, N-(4-fluorophenyl)-2-methyl-5-(3-(pyridin-2-yl)imidazo[1,5-a]pyrazin-8-yl)benzamide], the EC50 amounted to 2630 nM.
Consider `O=C(Nc1ccc(F)cc1)c1cc(-c2cccn3c(-c4cccc(F)c4F)ncc23)ccc1OC(F)(F)F` [Example 55], for which the EC50 turned out to be 15 nM.
Take `Cc1cnc(-c2cccn3c(-c4cccc(F)c4F)ncc23)cc1C(=O)Nc1ccc(F)cc1` [Example 56, 2-(3-(2,3-difluorophenyl)imidazo[1,5-a]pyridin-8-yl)-N-(4-fluorophenyl)-5-methylisonicotinamide]: the EC50 is 85.7 nM.
In turn, `Cc1ccc(-c2cccn3c(-c4cccc(F)c4F)ncc23)nc1C(=O)Nc1ccc(F)cc1` [Example 57] showed an EC50 of 76.8 nM.
Molecule `Cc1ncc(-c2cccn3c(-c4cccc(F)c4F)ncc23)cc1C(=O)Nc1ccc(OC(F)(F)F)cc1` [Example 58, 5-(3-(2,3-difluorophenyl)imidazo[1,5-a]pyridin-8-yl)-2-methyl-N-(4-(trifluoromethoxy)phenyl)nicotinamide] returned an EC50 of 110 nM.
As to `Cc1ncc(-c2cccn3c(-c4cccc(F)c4F)ncc23)cc1C(=O)Nc1ccc(C#N)c(C(F)(F)F)c1` [Example 59, N-(4-cyano-3-(trifluoromethyl)phenyI)-5-(3-(2,3-difluorophenyl)imidazo[1,5-a]pyridin-8-yl)-2-methylnicotinamide], the midpoint of the response, the EC50, lay at 227 nM.
On to `Cc1ncc(-c2cccn3c(-c4cccc(F)c4F)ncc23)cc1C(=O)Nc1ccc(F)cn1` [Example 60, 5-(3-(2,3-difluorophenyl)imidazo[1,5-a]pyridin-8-yl)-N-(5-fluoropyridin-2-yl)-2-methylnicotinamide], for which the midpoint of the response, the EC50, lay at 21.1 nM.
Take `Cc1ncc(-c2cccn3c(-c4cccc(F)c4F)cnc23)cc1C(=O)Nc1ccc(Cl)cc1` [Example 61, N-(4-chlorophenyl)-5-(3-(2,3-difluorophenyl)imidazo[1,2-a]pyridin-8-yl)-2-methylnicotinamide]: the EC50 is 29.9 nM.
